Assay results: ChEMBL document CHEMBL1156829 (Proc Natl Acad Sci U S A, 2008)

Columns and labels:
[1] = test system: Plasmodium falciparum; assay: NOVARTIS: Inhibition of Plasmodium falciparum 3D7 (drug-susceptible) proliferation in erythrocyte-based infection assay; format: functional, organism-based; conditions: Plasmodium falciparum, 3D7
[2] = test system: Plasmodium falciparum; assay: NOVARTIS: Inhibition of Plasmodium falciparum W2 (drug-resistant) proliferation in erythrocyte-based infection assay; format: functional, organism-based; conditions: Plasmodium falciparum, W2; read-out: EC50
[3] = NOVARTIS: Cytotoxicity against human hepatocellular carcinoma cell line (Huh7); format: toxicity, cell-based, Huh-7; conditions: Huh7 cells (hepatocellular carcinoma cell line)

| Structure (SMILES) | EC50 [1] [nM] | EC50 [2] [nM] | CC50 [3] [nM] |
| --- | --- | --- | --- |
| Fc1ccc(Nc2nc(NCc3ccco3)c3ccccc3n2)cc1 | 191 | 101 | 12400 |
| O=S(=O)(NCCCCNc1ccnc2cc(Cl)ccc12)c1ccc2ccccc2c1 | 268 | 4.95 | 6410 |
| CCc1ccc2ncc(C(=O)OCCOC)c(O)c2c1 | 777 | 1620 | > 100000 |
| COC(=O)C1CCN(C(=O)COC(c2ccccc2)c2cccnc2Cl)CC1 (stereo unspecified) | > 1250 | < 7.96 | > 2450 |
| Cc1cccc(CC(=O)N2CCC[C@@H]3CN(C(=O)CCc4cccnc4)CC[C@@H]32)c1 | > 1250 | 317 | > 10000 |
| Cc1ccc2[nH]c3c(NCCN(C)C)ncnc3c2c1 | 168 | 254 | 29600 |
| CN(C)c1oc(-c2ccc(Cl)cc2Cl)nc1[P+](c1ccccc1)(c1ccccc1)c1ccccc1 | 230 | 365 | 11600 |
| CCN(CC)CCN(Cc1cc2cc(OC)ccc2[nH]c1=O)C(=S)Nc1ccc(F)cc1 | 2080 | 3320 | 51400 |
| CN(CCCNc1ccnc2cc(Cl)ccc12)C(=O)COCc1ccccc1 | 110 | < 13.5 | > 10000 |
| Cc1cccc(C)c1NC(=O)CN1C(=O)C(C)(C)Oc2ccc(C(=O)NC(C)(C)C)cc21 | > 9240 | 2070 | > 100000 |
| Cc1ccc(OCC(=O)Nc2cccc(-c3nc4ncccc4o3)c2)cc1C | 1900 | 2050 | > 100000 |
| COc1ccc(C2Nc3ccc([N+](=O)[O-])cc3C3C=CCC32)cc1[N+](=O)[O-] (stereo unspecified) | 1500 | 616 | > 100000 |
| CCC(Sc1nc2ccccc2n1C(C)=O)C(=O)NC1=NN=C(c2ccc(Br)cc2)CS1 (stereo unspecified) | 549 | 543 | 46700 |
| O=C(CSc1cn(CCNC(=O)c2ccc(F)cc2)c2ccccc12)Nc1ccccc1F | > 12500 | > 8090 | > 98900 |
| COc1cc(C=C(C#N)c2nc3ccccc3[nH]2)ccc1OCc1ccccc1Cl | 757 | 1190 | > 100000 |
| CC(C)CNC(=O)c1cnc(NCCCn2ccnc2)nc1NCCc1ccccc1 | 600 | 610 | > 10000 |
| O=C(c1ccc2nc(N3CCCCC3)sc2c1)N1CCN(Cc2ccccc2)CC1 | 907 | 503 | > 100000 |
| Cc1ccc(C(=O)NCCCCNc2ccnc3cc(Cl)ccc23)cc1[N+](=O)[O-] | 222 | 308 | > 10000 |
| CCCC1=NN(c2nc3ccccc3s2)C(=O)C1 | > 1250 | > 644 | > 10000 |
| Cc1ccccc1N=c1oc2ccc3ccccc3c2cc1-c1nc2ccccc2[nH]1 | > 997 | > 1250 | > 2100 |
| Cc1ccc2nc(-c3ccccc3)cc(C(=O)Nc3ccc(Cl)cc3)c2c1 | > 1610 | 1040 | > 10000 |
| CCC(C)NC(=O)C1CSC(c2cccc(F)c2)N1C(=O)c1cc(OC)c(OC)c(OC)c1 (stereo unspecified) | > 1250 | 29.8 | > 654 |
| CN1CCN(c2nc(NN=Cc3ccc(O)cc3)nc(Nc3ccc([N+](=O)[O-])cc3)n2)CC1 | > 1250 | 1340 | > 10000 |

| Structure (SMILES) | EC50 [1] [nM] | EC50 [2] [nM] | CC50 [3] [nM] |
| --- | --- | --- | --- |
| COC(=O)[C@]1(C)CC[C@]2(C)CC[C@]3(C)C4=CC=C5C(=CC(=O)C(O)=C5C)[C@]4(C)CC[C@@]3(C)[C@@H]2C1 [PRISTIMERIN] | > 1250 | > 820 | > 6250 |
| CCC(c1nc2ccccc2c(=O)n1-c1ccccc1OC)N(CCc1ccccc1)C(=O)c1cccc(OC)c1 (stereo unspecified) | 1080 | 31.1 | > 10000 |
| CCOc1ccccc1NC(=O)Cn1c(=O)n(Cc2ccccc2)c(=O)c2c(C)c(C(=O)N(C)C)sc21 | 883 | 377 | > 100000 |
| COc1cc(O)c2c(=O)cc(CCOC(=O)Nc3ccccc3)[nH]c2c1 | > 905 | > 1250 | > 10000 |
| O=C(Nc1ccc(C2=NCCCN2)cc1)c1ccc(C(=O)Nc2ccc(C3=NCCCN3)cc2)cc1 | 120 | 93.2 | > 100000 |
| CCCCCCN(C(=O)c1cccc(OC)c1)C(CC)c1nc2ccccc2c(=O)n1-c1ccc(Cl)cc1C (stereo unspecified) | 1120 | > 178 | > 10000 |
| COc1ccc2nc(C)cc(Nc3cccc(O)c3)c2c1 | 228 | 347 | 51000 |
| COc1ccc(/C=C2\SC(=Nc3ccccc3OC)NC2=O)cc1 | 249 | 106 | > 10000 |
| CC(C)NC(=O)c1cn(Cc2ccccc2)cc(C(=O)NCCc2nc3ccccc3[nH]2)c1=O | 3340 | 2220 | > 100000 |
| Fc1cccc(Nc2nc(NCC3CCCO3)c3ccccc3n2)c1 (stereo unspecified) | 142 | 203 | 9580 |
| COc1ccc(NC2=C(N3CCCCC3)C(=O)c3ccccc3C2=O)cc1 | 33.1 | 35 | 12600 |
| CC(CN1CCC(n2cc(C(=O)N3CCCC3)nn2)CC1)c1ccccc1 (stereo unspecified) | 2410 | 1020 | > 100000 |
| CCCOC(=O)C1=C(C)NC2=C(C(=O)CC(c3ccc(Cl)cc3)C2)C1c1ccc(Br)cc1 (stereo unspecified) | 498 | 198 | > 100000 |
| N#CCCN(CC1CCCO1)C(=O)Nc1ccc(Cl)c(C(F)(F)F)c1 (stereo unspecified) | > 1020 | > 523 | > 10000 |
| O=C(O)c1nsnc1C(O)C(O)C(=O)O (stereo unspecified) | > 1410 | > 1240 | > 10000 |
| CCc1ccc(C(=O)C[n+]2cc(-c3ccc(OC)cc3)n3c2CCC3)cc1 | 677 | 857 | > 98000 |
| CCOc1ccc(S(=O)(=O)Oc2cccc3cccnc23)cc1 | > 1690 | > 1190 | > 10000 |
| CC1CC(=Cc2ccncc2)C(=O)C(=Cc2ccncc2)C1 (stereo unspecified) | 1630 | 736 | 7770 |
| CCN1CCN(c2cc(C)c3cc(NC(=O)/C=C/c4cccc(Cl)c4)ccc3n2)CC1 | 935 | 1010 | > 13800 |
| CCOC(=O)C1=C(C)NC2=C(C(=O)CCC2)C1c1ccc([N+](=O)[O-])cc1 (stereo unspecified) | 902 | 570 | > 100000 |
| O=C(Nc1ccccc1)/C(=C\c1ccncc1)NC(=O)c1ccccc1 | > 1250 | > 955 | > 10000 |
| Nc1ccc(-c2nc(-c3ccc(N)cc3)c3ccccc3n2)cc1 | > 1250 | 759 | > 10000 |
| Cc1nc(-c2ccncc2)nc(NCCNc2ccc(C(F)(F)F)cn2)c1Cl | 714 | > 1250 | > 10000 |

| Structure (SMILES) | EC50 [1] [nM] | EC50 [2] [nM] | CC50 [3] [nM] |
| --- | --- | --- | --- |
| Cc1cc(C)cc(NC2=C(N)C(=O)c3ccccc3C2=O)c1 | 969 | 551 | > 100000 |
| CCOc1ccc(-c2cn3c(n2)sc2cc(C(=O)NCCN(CC)CC)ccc23)cc1 | 766 | 1270 | 47500 |
| CCCc1cc2c(=O)c(-c3cc4ccccc4o3)coc2cc1OC(C)C(=O)OCC (stereo unspecified) | > 1170 | > 1250 | > 10000 |
| O=c1nc(/C=C/c2ccc(Cl)cc2)oc2ccccc12 | 1850 | > 1660 | > 10000 |
| O=C(Nc1ccc2oc(-c3ccc(I)cc3)nc2c1)c1ccc([N+](=O)[O-])o1 | 3160 | 2200 | 33800 |
| CCOc1ccccc1-n1c(C(C)N(Cc2ccccc2)C(=O)Nc2cccc3ccccc23)nc2ccccc2c1=O (stereo unspecified) | 855 | 242 | > 10000 |
| Cc1ccc2nc3c(c(Nc4ccc(N(C)C)cc4)c2c1)CCC3 | 1790 | 950 | 19800 |
| O=C1CC(c2ccccc2)CC2=C1C(c1ccccc1[N+](=O)[O-])Nc1ccccc1N2 (stereo unspecified) | 3470 | 1110 | > 100000 |
| COc1ccc(C2=C(c3ccc(OC)cc3)C3(c4ccccc4)C(=O)C2(c2ccccc2)C2C(=O)N(c4cc(Cl)ccc4C)C(=O)C23)cc1 (stereo unspecified) | 447 | 346 | > 100000 |
| CCN(CC)S(=O)(=O)c1cc(S(=O)(=O)c2ccc(Cl)c(S(=O)(=O)N(CC)CC)c2)ccc1Cl | > 927 | > 278 | > 10000 |
| CN(CCCNc1ccnc2cc(Cl)ccc12)S(=O)(=O)c1ccc(Cl)c([N+](=O)[O-])c1 | 243 | 185 | 3140 |
| CCCCC(CC)C(=O)N1CCN(C(C)c2nc3ccc(Cl)cc3c(=O)n2C)CC1 (stereo unspecified) | > 1490 | 1810 | > 10000 |
| CCN(C(C)=O)C1=C(N2CCOCC2)C(=O)c2ccccc2C1=O | 168 | 185 | 4090 |
| CCOC(=O)c1cnc2c(OC)cccc2c1Nc1cc(C)c(Cl)cc1OC | 539 | > 1230 | > 10000 |
| CN1CCCC1CCNCc1cc(-c2ccnc3cc(Cl)ccc23)ccc1O (stereo unspecified) | 31.4 | 153 | 15200 |
| CCOc1c(Cl)cc(CNC(C)C(O)c2ccccc2)cc1OC (stereo unspecified) | 1650 | 427 | > 10000 |
| CCCCN(C(=O)Nc1ccc(OCC)cc1)C(C)c1nc2ccccc2c(=O)n1-c1ccc(F)c(Cl)c1 (stereo unspecified) | 1010 | 935 | > 10000 |
| CCOC(=O)c1ccc(-c2c(-c3cc(CC)c(OC)cc3O)noc2C)o1 | 927 | 433 | 13800 |
| CCOc1cccc2c(C)nc(NC(=N)N)nc12 | 358 | 1540 | 56500 |
| COc1ccc(Nc2c3c(nc4ccc(NC(=O)c5cc(=O)c6ccccc6o5)cc24)CCCC3)cc1OC | 303 | 558 | 11100 |
| C=C[C@H]1CN2CC[C@H]1C[C@@H]2[C@@H](OC(C)=O)c1ccnc2ccccc12 | 666 | 157 | > 10000 |
